Assay results taken from patent EP4703359A1 (Shanghai Simr Biotechnology Co., Ltd., priority 2023, dated 2024).

Target: T1, α2-GABAA receptor (Homo sapiens, UniProt P18507+P47869)
T1 construct: expressed in transfected cells
Assay: Whole-cell patch-clamp electrophysiology, positive allosteric modulatory activity in α2-GABAAR-HEK293 cells
Format: cell-based
Settings: compound 100 nM; GABA 0.10 to 0.11 µM (approximately EC7-8); normalized to reference compound CVL-865 (= 100%)
Source text: The α subunit, β subunit, and γ subunit are indispensable for forming a fully functional GABAA receptor. In this example, HEK293 cells stably expressing α2-GABAA receptors (α2-GABAAR) were constructed and screened respectively via liposome transfection (Felgner, P.L., et al. Proceedings of the National Academy of Sciences, 1987, 84: 7413-7417). The α2-GABAAR-HEK293 cell model co-expresses the α2 subunit (protein sequence referenced under GenBank accession number: NM_000807.4), β3 subunit (protein sequence referenced under GenBank accession number: NM_000814.5), and γ2 subunit (protein sequence referenced under GenBank accession number: NM_000816.3).
The above cell lines were subcultured. α2-GABAAR-HEK293 cells were amplified for testing the affinity of compounds to the benzodiazepine (BZD) site of GABAA receptors. Some of the α2-GABAAR-HEK293 cells in suspension during subculturing were plated on glass slides pre-treated with Poly-D-Lysine for electrophysiological testing (method reference: Patent CN 107344936 A, paragraph 0586).
The positive modulatory activity of the test drug on the α2-GABAA receptor was assessed using electrophysiological methods. The specific approach is as follows:
With regards to the concentration of the compound, the final concentration of all compounds used in the screening was 100 nM. For cell lines expressing α2-GABAA receptors, the GABA concentration was 0.10 to 0.11 µM (approximately EC7-8). Electrophysiological experiments were conducted using the whole-cell patch-clamp technique, which can be referenced to the method reported in the literature (Nickolls, S. A., et al. *British Journal of Pharmacology*, 2018, 175: 708-725). The composition of the extracellular solution (ECS) for electrophysiology was as follows: 150 mM NaCl, 5 mM KCl, 2.5 mM CaCl2, 1 mM MgCl2, 10 mM HEPES, and 10 mM glucose (pH 7.4). The intracellular solution (ICS) for electrophysiology was formulated as follows: 140 mM CsCl, 11 mM EGTA, 10 mM HEPES, 2 mM CaCl2, 1 mM MgCl2, 4 mM MgATP, and 2 mM TEA (pH 7.3). GABA (γ-aminobutyric acid) powder was dissolved in pure water to prepare a stock solution, which was subsequently diluted in ECS. The compound was initially dissolved in dimethyl sulfoxide to prepare a 4 mM stock solution, followed by stepwise dilution into GABA-ECS at corresponding concentrations. All solutions were freshly prepared prior to electrophysiological testing.
Electrophysiological signals were acquired using an EPC 10 amplifier and PatchMaster software (HEKA) or an Axon 700B amplifier and Clampex software (AXON). The recording electrode was pulled from borosilicate glass, with an electrode resistance of 4 to 6 MΩ. Extracellular administration was performed using the ALA-VC-8PG™ system. A single independently growing cell was selected. After forming a tight seal between the glass electrode and the cell membrane, the membrane was ruptured to establish the whole-cell configuration. The cell membrane potential was clamped at -60 mV and recorded in Gap-free mode. During the test, extracellular fluid was first applied externally for approximately 20 seconds. After the baseline (Iprebaseline) was stabilized, the extracellular solution was switched to GABA-ECS. At this point, the current induced by GABA (Igaba) can be detected. After approximately 10 to 20 seconds, once the current had stabilized, the extracellular solution was switched to a mixture of the compound and GABA-ECS until the current induced by both the compound and GABA (Itreatment) could be detected. Finally, the solution was switched to extracellular fluid, and the recording was terminated after 20 to 40 seconds. Only cells with a stable baseline, an absolute control current magnitude (Igaba - Iprebaseline) greater than 40 pA, and a relatively stable current within 10 to 20 seconds were used for compound testing. […]

T1 sequence (P47869 29-451): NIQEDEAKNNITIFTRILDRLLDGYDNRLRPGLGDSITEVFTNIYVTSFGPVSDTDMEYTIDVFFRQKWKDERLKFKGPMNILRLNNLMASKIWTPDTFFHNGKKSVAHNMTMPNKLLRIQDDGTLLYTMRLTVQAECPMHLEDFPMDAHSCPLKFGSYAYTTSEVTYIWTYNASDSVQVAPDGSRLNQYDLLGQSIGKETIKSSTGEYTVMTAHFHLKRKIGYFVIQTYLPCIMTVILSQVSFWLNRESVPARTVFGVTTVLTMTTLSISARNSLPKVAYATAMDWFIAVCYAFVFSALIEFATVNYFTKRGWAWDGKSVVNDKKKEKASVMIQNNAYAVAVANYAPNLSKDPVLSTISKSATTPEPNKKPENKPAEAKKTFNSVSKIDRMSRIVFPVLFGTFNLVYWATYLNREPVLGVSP
T1 sequence (P18507 40-467 isoform P18507-1 limits assumed): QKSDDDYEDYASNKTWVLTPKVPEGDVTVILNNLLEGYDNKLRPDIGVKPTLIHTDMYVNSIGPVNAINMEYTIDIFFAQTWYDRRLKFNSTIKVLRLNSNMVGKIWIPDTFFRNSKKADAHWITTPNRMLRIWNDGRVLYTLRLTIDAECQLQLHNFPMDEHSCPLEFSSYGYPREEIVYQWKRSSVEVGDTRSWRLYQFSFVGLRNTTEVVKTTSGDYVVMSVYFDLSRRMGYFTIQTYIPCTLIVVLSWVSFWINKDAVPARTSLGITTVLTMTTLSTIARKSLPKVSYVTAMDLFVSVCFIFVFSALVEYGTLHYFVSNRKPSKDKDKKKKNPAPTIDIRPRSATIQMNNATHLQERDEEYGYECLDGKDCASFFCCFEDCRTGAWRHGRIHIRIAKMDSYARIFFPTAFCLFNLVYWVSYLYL
T1 sequence (P28472 26-473 partner): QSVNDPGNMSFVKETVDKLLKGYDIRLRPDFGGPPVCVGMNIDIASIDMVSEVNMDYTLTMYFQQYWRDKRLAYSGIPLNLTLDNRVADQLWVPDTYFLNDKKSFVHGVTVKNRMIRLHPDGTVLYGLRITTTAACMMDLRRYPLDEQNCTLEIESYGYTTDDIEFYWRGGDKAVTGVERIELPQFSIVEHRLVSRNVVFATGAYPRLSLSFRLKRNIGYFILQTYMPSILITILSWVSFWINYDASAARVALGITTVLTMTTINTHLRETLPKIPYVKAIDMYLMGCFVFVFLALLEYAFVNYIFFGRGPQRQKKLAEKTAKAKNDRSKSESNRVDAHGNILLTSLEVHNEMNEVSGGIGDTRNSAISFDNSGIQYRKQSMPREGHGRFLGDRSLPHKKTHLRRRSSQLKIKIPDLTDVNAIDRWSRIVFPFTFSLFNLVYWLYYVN

SMILES	α2-GABAAR Positive allosteric modulatory activity
CCCNC(=O)c1nc2c(-c3cc(F)cc(C#N)c3)c(F)ccn2c1N [Example 127]	77%

Same assay, conditions: compound 100 nM; GABA 0.10 to 0.11 µM (approximately EC7-8); normalized to reference compound CVL-865 (= 100%); read-out: α2-GABAAR Positive allosteric modulatory activity

SMILES	Emax at 0.1 µM
CCCNC(=O)c1nc2c(-c3cnc(OC)nc3OC)cccn2c1N [Example 81, 3-Amino-8-(2,4-dimethoxypyrimidin-5-yl)-N-propylimidazo[1,2-a]pyridine-2-carboxamide]	48%
C=CCNC(=O)c1nc2c(-c3c(F)cccc3OC)cccn2c1N [Example 30, N-Allyl-3-amino-8-(2-fluoro-6-methoxyphenyl)imidazo[1,2-a]pyridine-2-carboxamide]	81%
CCCNC(=O)c1nc2c(-c3cccc(/C(C)=N/OC)c3)cccn2c1N [Example 38, (E)-3-Amino-8-(3-(1-(methoxyimino)ethyl)phenyl)-N-propylimidazo[1,2-a]pyridine-2-carboxamide]	50%
CCCCNC(=O)c1nc2c(-c3c(F)cccc3OC)c(F)ccn2c1N [Example 124, 3-Amino-N-butyl-7-fluoro-8-(2-fluoro-6-methoxyphenyl)imidazo[1,2-a]pyridine-2-carboxamide]	90%
CCCNC(=O)c1nc2c(-c3cc4cnn(C)c4cc3OC)cccn2c1N [Example 95, 3-Amino-8-(6-methoxy-1-methyl-1H-indazol-5-yl)-N-propylimidazo[1,2-a]pyridine-2-carboxamide]	27%
CCCNC(=O)c1nc2c(-c3c(F)cccc3OC)c(C)ccn2c1N [Example 132, 3-Amino-8-(2-fluoro-6-methoxyphenyl)-7-methyl-N-propylimidazo[1,2-a]pyridine-2-carboxamide]	48%
C#CCNC(=O)c1nc2c(-c3c(F)cccc3OC)cccn2c1N [Example 31, N-Propargyl-3-amino-8-(2-fluoro-6-methoxyphenyl)imidazo[1,2-a]pyridine-2-carboxamide]	26%
CCCNC(=O)c1nc2c(-c3cc4c(cc3OC)N(C)CCO4)cccn2c1N [Example 92, 3-Amino-8-(6-methoxy-4-methyl-3,4-dihydro-2H-benzo[b][1,4]oxazin-7-yl)-N-propylimidazo[1,2-a]pyridine-2-carboxamide]	33%

Second part, the compound after the results:

Emax at 0.1 µM	SMILES
112%	CCCNC(=O)c1nc2c(-c3c(F)ccc4ccoc34)cccn2c1N [Example 101, 3-Amino-8-(6-fluorobenzofuran-7-yl)-N-propylimidazo[1,2-a]pyridine-2-carboxamide]
53%	CCCNC(=O)c1nc2c(-c3cccnc3F)c(F)ccn2c1N [Example 112, 3-Amino-7-fluoro-8-(2-fluoropyridin-3-yl)-N-propylimidazo[1,2-a]pyridine-2-carboxamide]
90%	CCCNC(=O)c1nc2c(-c3c(OC)ccc4ccc(F)cc34)cccn2c1N [Example 107, 3-Amino-8-(7-fluoro-2-methoxynaphthalen-1-yl)-N-propylimidazo[1,2-a]pyridine-2-carboxamide]
73%	CCCNC(=O)c1nc2c(-c3c(F)cccc3SC)cccn2c1N [Example 74, 3-Amino-8-(2-fluoro-6-(methylthio)phenyl)-N-propylimidazo[1,2-a]pyridine-2-carboxamide]
88%	CCCNC(=O)c1nc2c(-c3ccc(F)cc3OC)c(F)ccn2c1N [Example 121, 3-Amino-7-fluoro-8-(4-fluoro-2-methoxyphenyl)-N-propylimidazo[1,2-a]pyridine-2-carboxamide]
35%	CCNC(=O)c1nc2c(-c3c(F)cccc3OC)cccn2c1N [Example 2, 3-Amino-8-(2-fluoro-6-methoxyphenyl)-N-ethylimidazo[1,2-a]pyridine-2-carboxamide]
57%	COc1cccc(F)c1-c1cccn2c(N)c(C(=O)NCCCO)nc12 [Example 23, 3-Amino-8-(2-fluoro-6-methoxyphenyl)-N-(3-hydroxypropyl)imidazo[1,2-a]pyridine-2-carboxamide]
44%	CC1CN(C(=O)c2nc3c(-c4c(F)ccc5ccoc45)cccn3c2N)C1 [Example 102, (3-Amino-8-(6-fluorobenzofuran-7-yl)imidazo[1,2-a]pyridin-2-yl)(3-methylazetidin-1-yl)methanone]
